PubChem BioAssay (NCI)
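Test compounds were applied to cells in 96-well plates for 48 hours at 5 doses. TGI: concentration producing complete growth inhibition.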

Experiments:
Assay in all cases: NCI-60 cell line screen, 48 h
A549 NSCLC = test system: A549 NSCLC
NCI-H23 lung = test system: NCI-H23 lung
RXF 393 renal = test system: RXF 393 renal
SK-MEL-28 melanoma = test system: SK-MEL-28 melanoma
MCF7 breast = test system: MCF7 breast
OVCAR-5 ovarian = test system: OVCAR-5 ovarian
U251 CNS = test system: U251 CNS
K-562 leukemia = test system: K-562 leukemia
HCT-116 colon = test system: HCT-116 colon
SNB-19 CNS = test system: SNB-19 CNS

| Structure (SMILES) | TGI (A549 NSCLC) [µM] | TGI (NCI-H23 lung) [µM] | TGI (RXF 393 renal) [µM] | TGI (SK-MEL-28 melanoma) [µM] | TGI (MCF7 breast) [µM] | TGI (OVCAR-5 ovarian) [µM] | TGI (U251 CNS) [µM] | TGI (K-562 leukemia) [µM] | TGI (HCT-116 colon) [µM] | TGI (SNB-19 CNS) [µM] |
| --- | --- | --- | --- | --- | --- | --- | --- | --- | --- | --- |
| CCc1nnc(CC)n1NCCCC(=O)O | > 100 | > 100 | > 100 | > 100 | > 100 | > 100 | > 100 | > 100 | > 100 | > 100 |
| CC(=O)OCC(=O)[C@@]1(O)CC[C@H]2[C@@H]3CCC4=CC(=O)[C@H](C)C[C@]4(C)[C@H]3[C@@H](O)C[C@@]21C | > 100 | > 100 | – | > 100 | – | > 100 | > 100 | > 100 | > 100 | > 100 |
| COC(=O)[C@H](Cc1ccccc1)NC(=O)NCCN(CCNC(=O)N[C@@H](Cc1ccccc1)C(=O)OC)C(=O)N[C@@H](Cc1ccccc1)C(=O)OC | 54.3 | 36.1 | 31.9 | 35.4 | 61.8 | 35.2 | 41.2 | 61 | 35.8 | 48.2 |
| O=C(O)C1C(C(=O)O)C2C(=O)C=CC1N2Cc1ccccc1 (stereo not drawn) | 22.4 | 7.71 | 7.51 | 15.5 | 25.7 | 20.5 | 14.2 | > 100 | 15.2 | 18.2 |
| CC1CC2OC(=O)C3CC(O)CC(=C23)[C@@]12C[C@@H](c1ccoc1)OC2=O (stereo partly drawn) | > 100 | > 100 | > 100 | > 100 | – | > 100 | > 100 | > 100 | > 100 | > 100 |
| O=C(O)c1c[nH]c2c(Sc3ccccc3)nccc2c1=O | > 100 | > 100 | – | > 100 | > 100 | > 100 | > 100 | – | > 100 | > 100 |
| COc1ccc(/C=C2/C(C)=NN(c3cccc(Cl)c3)/C2=N/c2nc3ccccc3s2)cc1 | – | 34.6 | 26.8 | 46.9 | 84.4 | 69.6 | 47 | > 100 | 33.9 | – |
| O=c1[nH]c(=O)n(C2OC(CO)C(O)C(F)C2O)cc1F (stereo not drawn) | > 100 | > 100 | – | > 100 | > 100 | > 100 | > 100 | > 100 | > 100 | > 100 |
| COc1ccc(C2c3cc4c(cc3C(O)C3CCC(=O)N23)OCO4)cc1 (stereo not drawn) | > 100 | > 100 | – | > 100 | > 100 | > 100 | > 100 | > 100 | > 100 | > 100 |
| O=P(O)(OCC(O)O)OCC(O)O | > 100 | > 100 | > 100 | > 100 | – | > 100 | > 100 | > 100 | > 100 | > 100 |
| O=c1n(/N=C/c2ccccc2)c(=O)n2n1C1C=CC2CC1 | > 100 | > 100 | – | > 100 | > 100 | > 100 | > 100 | > 100 | > 100 | > 100 |
| CCOC(=O)/C(N=Nc1ccc(-n2c(C)nc3ccccc3c2=O)cc1)=C(/C)O | > 100 | > 100 | – | 71.6 | > 100 | > 100 | > 100 | > 100 | > 100 | > 100 |
| CCCCCCn1c(SCC)c2ccccc2c1-c1nc(F)nc(F)n1 | > 100 | > 100 | > 100 | > 100 | – | > 100 | > 100 | > 100 | > 100 | > 100 |
| C/C(CN1C(=O)c2ccccc2C1=O)=N\NS(=O)(=O)c1ccc(Br)cc1 | > 100 | > 100 | > 100 | > 100 | – | > 100 | > 100 | > 100 | > 100 | > 100 |
| Cn1c(O)c(C(=O)Nc2cccs2)c(=O)[nH]c1=S | 45 | 28 | – | 29 | – | 69.5 | 48.3 | > 100 | 26.5 | 79.6 |
| NC(=S)NNC(=O)/C(=C/c1ccc(/C=C(\NC(=O)c2ccccc2)C(=O)NNC(N)=S)cc1)NC(=O)c1ccccc1 | > 100 | > 100 | > 100 | > 100 | – | > 100 | > 100 | > 31.6 | > 100 | > 100 |
| COc1ccc(OC)c2sc(N3C(=O)/C(=C/Cc4ccco4)N=C3c3ccccc3)nc12 | > 100 | – | – | > 100 | 35.7 | > 100 | 54.1 | > 100 | 98.9 | > 100 |
| COc1cc(/C=C/C(=O)c2sc(-n3nc(-c4ccccc4)cc3-c3ccccc3)nc2C)ccc1O | > 100 | > 100 | > 100 | > 100 | – | > 100 | > 100 | > 100 | – | – |
| CC(C)=CCCC1(C)C=Cc2c(c(C)cc3c2[nH]c2cc(O)ccc23)O1 (stereo not drawn) | > 25 | – | > 25 | > 25 | – | > 25 | > 25 | > 25 | > 25 | > 25 |
| O=S(=O)([O-])[O-].[Fe+2].c1ccc(/C(=N\Nc2ccccn2)c2ccccn2)cc1 | 8.82 | 8.68 | 11.7 | – | – | 7.07 | 4.66 | 8.44 | 4.56 | 15.4 |
| CCOC(C[C@H](O)[C@H]1COC(=S)S1)OCC | > 100 | > 100 | > 100 | – | – | – | > 100 | – | > 100 | > 100 |
| CC(C)c1ccccc1SC1CC(=O)CC(Sc2ccccc2C(C)C)C12O[C@H](c1ccccc1)[C@@H](c1ccccc1)O2 (stereo partly drawn) | > 100 | > 100 | 42 | > 100 | > 100 | > 100 | 40.1 | – | > 100 | > 100 |
| NC(=O)C(Nc1c(Cl)cccc1Cl)c1cc2cc(Br)ccc2nc1Cl (stereo not drawn) | > 100 | > 100 | > 100 | > 100 | > 100 | > 100 | – | > 100 | > 100 | > 100 |
